Results taken from ChEMBL document CHEMBL4017441, “Mitigating the inhibition of human bile salt export pump by drugs: opportunities provided by physicochemical property modulation, in silico modeling, and structural modification” (Drug Metab Dispos, 2012).
pIC50: −log10 of the molar value. *1 amine or outer side, *2 acyl side, *3 side chain or, on linkers, in order; H or OH if unused. Where a SMILES comes first, the peptide text is derived from it. Bridges are numbered along the chain shown (N, C = ends). [ ]: non-standard residue; d: D form. The star is where a group is joined. ξ: configuration not given here. X2 = N=C1NC(O)C[C@H]([C@H](N[*:1])C(=O)[*:2])N1; ΔAla(Z-3-ureido) = NC(=O)N/C=C(\N)C(=O)O; ξβ3hOrn = NCCCC(N)CC(=O)*; Dap = NC[C@H](N)C(=O)O

Biological target: Bile salt export pump (Homo sapiens, UniProt O95342)
Assay type: ADME

Structure (SMILES) | pIC50
c1ccc(CN(CC2=NCCN2)c2ccccc2)cc1 [ANTAZOLINE] | < 3.00
N=C1NC(O)C[C@H]([C@@H]2NC(=O)/C(=C/NC(N)=O)NC(=O)[C@H](CO)NC(=O)[C@H](CO)NC(=O)[C@@H](NC(=O)CC(N)CCCN)CNC2=O)N1 (stereo partly drawn) (ξβ3hOrn-[Dap]SS[ΔAla(Z-3-ureido)][X2]; lactam 1-C) | < 3.00
CC(C)(C(=O)c1cccnc1)c1cccnc1 [METYRAPONE] | 3.64
O=C(c1ccc(-c2ccncc2)cc1)N1CCN(S(=O)(=O)c2cc3cc(Cl)ccc3[nH]2)CC1 | > 5.00
CC[C@H](NC(=O)c1c(O)c(-c2ccccc2)nc2ccccc12)c1ccccc1 [TALNETANT] | > 5.00
CCN(CC)CCOC(=O)C(c1ccccc1)c1ccccc1 [ADIPHENINE] | 3.80
CCn1ccnc1CC1COc2ccccc2O1 (stereo unspecified) [IMILOXAN] | 4.21
CC(C)Cc1ccc(C(C)C(=O)O)cc1 (stereo unspecified) [IBUPROFEN] | < 3.10
C[N+](C)(C)CC(=O)O [BETAINE] | < 3.00
CCN(CC)CCNC(=O)c1ccc(NS(C)(=O)=O)cc1 [SEMATILIDE] | < 3.00
CN(C)c1nc(N(C)C)nc(N(C)C)n1 [ALTRETAMINE] | < 3.00
O=C(NCC1CCCCN1)c1cc(OCC(F)(F)F)ccc1OCC(F)(F)F (stereo unspecified) [FLECAINIDE] | 3.66
CCCC(C(=O)OCCN(CC)CC)(c1ccccc1)c1ccccc1 [PROADIFEN] | > 4.88
Cc1cc(=O)[nH]c(=S)[nH]1 [METHYLTHIOURACIL] | < 3.00
CN(C)CCOC(C)(c1ccccc1)c1ccccn1 (stereo unspecified) [DOXYLAMINE] | < 3.00
COc1ccc(-n2[nH]c(=O)c3[nH]c4cc(Cl)ccc4c(=O)c3c2=O)c(C)c1 | 3.31
O=C1OC(OC(=O)c2cccnc2Nc2cccc(C(F)(F)F)c2)c2ccccc21 (stereo unspecified) [TALNIFLUMATE] | < 3.00
C[C@H](CCC(=O)O)[C@H]1CC[C@H]2[C@@H]3[C@@H](O)C[C@@H]4C[C@H](O)CC[C@]4(C)[C@H]3CC[C@]12C [URSODIOL] | > 5.00
CCC1(C)CC(=O)NC1=O (stereo unspecified) [ETHOSUXIMIDE] | < 3.00
COc1ccc2c(c1)N(C[C@H](C)CN(C)C)c1ccccc1S2 [LEVOMEPROMAZINE] | 3.90
CCOC(=O)c1ncn2c1CN(C)C(=O)c1cc(F)ccc1-2 [FLUMAZENIL] | < 3.13
CCC(NC(C)C)C(O)c1ccc(O)c(O)c1 (stereo unspecified) [ISOETHARINE] | < 3.00
N=C(N)c1ccc(OCCCCCOc2ccc(C(=N)N)cc2)cc1 [PENTAMIDINE] | < 3.00

Structure (SMILES) | pIC50
C[C@@](O)(C(=O)Nc1ccc(S(=O)(=O)c2ccc(NCCO)cc2)cc1Cl)C(F)(F)F | 4.56
O=c1ncn2nc(Sc3ccc(F)cc3F)ccc2c1-c1c(Cl)cccc1Cl [NEFLAMAPIMOD] | > 5.00
CC1=C(CC(=O)O)c2cc(F)ccc2/C1=C\c1ccc([S+](C)[O-])cc1 (stereo unspecified) | 4.20
CNCC(O)c1ccc(O)cc1 (stereo unspecified) [OXEDRINE] | < 3.00
Cc1ccc(S(=O)(=O)NC(=O)NN2CCCCCC2)cc1 [TOLAZAMIDE] | 3.54
CN1CC[C@@]2(C)c3cc(OC(=O)N4CCc5ccccc5C4)ccc3N(C)[C@@H]12 [QUILOSTIGMINE] | > 5.00
CN(CCOc1ccc(NS(C)(=O)=O)cc1)CCc1ccc(NS(C)(=O)=O)cc1 [DOFETILIDE] | 3.15
c1ccc2c(CC3=NCCN3)cccc2c1 [NAPHAZOLINE] | < 3.00
O=c1[nH]cc(F)c(=O)[nH]1 [FLUOROURACIL] | < 3.00
COc1ccc2c(C(=S)N(C)CC(=O)O)cccc2c1C(F)(F)F [TOLRESTAT] | 3.73
CCCCOc1cc(C(=O)OCCN(CC)CC)ccc1N [BENOXINATE] | 3.51
CCCc1ncc(-c2ccnc(Nc3ccc(S(=O)(=O)NCCOC)cc3)n2)n1CC | > 5.00
O=C(C1CCCCC1)N1CC(=O)N2CCc3ccccc3C2C1 (stereo unspecified) [PRAZIQUANTEL] | 4.22
N#Cc1ccccc1OCC(O)CNCCNC(=O)Cc1ccc(O)cc1 (stereo unspecified) [EPANOLOL] | 3.61
Cc1nc(Nc2ncc(C(=O)Nc3c(C)cccc3Cl)s2)cc(N2CCN(CCO)CC2)n1 [DASATINIB] | > 5.00
CC(C)NNC(=O)c1ccncc1 [IPRONIAZID] | < 3.02
CO[C@H]1C[C@@H]2CC[C@@H](C)[C@@](O)(O2)C(=O)C(=O)N2CCCC[C@H]2C(=O)O[C@H]([C@H](C)C[C@@H]2CC[C@@H](O)[C@H](OC)C2)CC(=O)[C@H](C)/C=C(\C)[C@@H](O)[C@@H](OC)C(=O)[C@H](C)C[C@H](C)/C=C/C=C/C=C/1C [SIROLIMUS] | > 5.00
C[C@]12CC[C@H]3[C@@H](CCC4=CC(=O)CC[C@@]43C)[C@@H]1CC[C@@H]2C(=O)CO [DESOXYCORTICOSTERONE] | 4.77
O=C1c2ccccc2S(=O)(=O)N1CCCCN1CCN(c2ncccn2)CC1 [IPSAPIRONE] | 4.51
Nc1ncnc2nc[nH]c12 [ADENINE] | < 3.00
CC(CCc1ccc(O)cc1)NCCc1ccc(O)c(O)c1 (stereo unspecified) [DOBUTAMINE] | < 3.00
CN[C@H]1CC[C@@H](c2ccc(Cl)c(Cl)c2)c2ccccc21 [SERTRALINE] | 4.53
CN1CCN(CC/C=C2/c3ccccc3Sc3ccc(S(=O)(=O)N(C)C)cc32)CC1 [THIOTHIXENE] | 4.52
